Earlier results on one substance are cited in patent US20130109633A1, “CB-183,315 Compositions and Related Methods” (Cubist Pharmaceuticals, Inc., priority 2011, published 2013).

For the data set, the system named is a broad spectrum of bacteria, including drug-resistant bacteria and C. difficile.

In the case of CB-183,315, the antibacterial activity result is recorded as “antibacterial activity against a broad spectrum of bacteria” and the bacteriacidal activity result was “exhibits bacteriacidal activity”.
